From PMC9412555, “Benzothiazole Derivatives Endowed with Antiproliferative Activity in Paraganglioma and Pancreatic Cancer Cells: Structure–Activity Relationship Studies and Target Prediction Analysis” (Pharmaceuticals, 2022)
Blank lines part the entries; values can stand above or below the molecule they belong to.

Assays:
PTJ64i = experiment: MTT cell viability assay, PTJ64i; assay type: cell-based; conditions: for Selectivity Index (SI): IC50 in normal (HFF-1) fibroblast cells/IC50 in PTJ64i; for IC50: PTJ64i paraganglioma, MTT, 72 h
Description: (§1) Compounds 4a–p were submitted to a preliminary MTT assay at a one-point screening concentration of 75 μM for 72 h, including 2b as a reference compound (Figure 3). […] The presence of the electron-donating methoxy group decreased the activity of 2b, in both the para and meta positions. […] Specifically, these compounds, namely 4d, 4e, 4f, 4h, 4i, 4j, 4k, 4l, and 4m, were tested at concentrations of 3, 6, 12 and 24 µM for 72 h. In addition, the nine compounds, together with 2b, were tested against human fibroblasts HFF-1, in order to evaluate their selectivity against tumor cells, as compared to normal cells. Effects on cancer or normal cell viability were extrapolated from concentration–response curves and are expressed as IC50 values in Table 2.
(§2) Pancreatic cancer (AsPC-1, BxPC-3, and Capan-2), paraganglioma (PTJ86i and PTJ64i) and normal fibroblast (HFF-1) cell lines were cultured as previously described. All compounds were dissolved in DMSO (stock solutions) and then diluted in culture media to the final working concentrations. In this way, the solutions were completely clear and devoid of any undissolved material by microscopic inspection. […] The effects of compounds 4a-p and 2b on cancer cell viability were tested by an MTT assay (Sigma-Aldrich, St. Louis, MO, USA), as described by Florio et al.. In the initial screening all compounds were tested at a one-point screening concentration of 75 μM for 72 h (five replica wells per each condition). […] For combined treatments, the experimental design was made according to the Chou–Talalay method for drug combination studies, as previously described.
(§3) IC50 values were extrapolated from concentration–response curves and calculated using the CompuSyn software. […] Based on this analysis, a CI < 1 indicates synergism, a CI = 1 indicates additive effects and a CI > 1 indicates antagonism. SI values were calculated as previously described. Comparisons of mean values were performed using an unpaired Student’s t-test. For multiple comparisons, a one-way ANOVA followed by Dunnett’s test were employed. A p-value < 0.05 was estimated as statistically significant.

PTJ86i = experiment: MTT cell viability assay, PTJ86i; assay type: cell-based; conditions: for Selectivity Index (SI): IC50 in normal (HFF-1) fibroblast cells/IC50 in PTJ86i; for IC50: PTJ86i paraganglioma, MTT, 72 h
Description: as §1, §2, §3

HFF-1 = experiment: MTT cell viability assay, normal fibroblasts HFF-1; assay type: cell-based, human; conditions: 72 h; for IC50: HFF-1 normal cells, MTT
Description: All compounds were dissolved in DMSO (stock solutions) and then diluted in culture media to the final working concentrations. […] The effects of compounds 4a-p and 2b on cancer cell viability were tested by an MTT assay (Sigma-Aldrich, St. Louis, MO, USA), as described by Florio et al. [17]. In the initial screening all compounds were tested at a one-point screening concentration of 75 μM for 72 h (five replica wells per each condition).
IC50 values were extrapolated from concentration–response curves and calculated using the CompuSyn software [45]. […] SI values were calculated as previously described [46]. Comparisons of mean values were performed using an unpaired Student’s t-test. For multiple comparisons, a one-way ANOVA followed by Dunnett’s test were employed. A p-value < 0.05 was estimated as statistically significant.

[1] = system: pancreatic (AsPC-1, BxPC-3, and Capan-2) and paraganglioma (PTJ64i and PTJ86i) cancer cell lines; experiment: One-point MTT screening at 75 µM in cancer cell lines; assay type: cell-based; conditions: one-point screening concentration of 75 μM for 72 h, five cancer cell lines
Description: as §1, §2
Figure 3 Screening of the effects of novel derivatives (4a–p) on the viability of pancreatic (AsPC-1, BxPC-3, and Capan-2) and paraganglioma (PTJ64i and PTJ86i) cancer cell lines. The lead compound 2b was included as a reference and the histograms show the relative decrease of cancer cell viability observed after treatments, as compared to 2b. Cell viability was assessed by an MTT assay using compounds at 75 µM for 72 h. Data shown are the means ± SD of duplicate experiments with quintuplicate determinations and are calculated as ratios relative to the reference compound 2b (dashed line).

Capan-2 = experiment: MTT cell viability assay, Capan-2; assay type: cell-based; conditions: for IC50: Capan-2 pancreatic cancer, MTT; for IC50 / Inhibition Rate of Cell Viability: 72 h; for Selectivity Index (SI): IC50 in normal (HFF-1) fibroblast cells/IC50 in Capan-2
Description: as §1, §2, §3

BxPC-3 = experiment: MTT cell viability assay, BxPC-3; assay type: cell-based; conditions: for IC50: BxPC-3 pancreatic cancer, MTT; for IC50 / Inhibition Rate of Cell Viability: 72 h; for Selectivity Index (SI): IC50 in normal (HFF-1) fibroblast cells/IC50 in BxPC-3
Description: as §1, §2, §3

AsPC-1 = experiment: MTT cell viability assay, AsPC-1; assay type: cell-based; conditions: for IC50: AsPC-1 pancreatic cancer, MTT; for IC50 / Inhibition Rate of Cell Viability: 72 h; for Selectivity Index (SI): IC50 in normal (HFF-1) fibroblast cells/IC50 in AsPC-1
Description: as §1, §2, §3

SMILES: O=C(Nc1ccc(C(F)(F)F)cc1)C(Sc1nc2cc(Cl)ccc2s1)c1ccccc1 (stereo not shown) [4d, 2-[(5-Chlorobenzo[d]thiazol-2-yl)thio]-2-phenyl-N-[4-(trifluoromethyl)phenyl] Acetamide]
Selectivity Index (SI) (PTJ64i): 1.36 | IC50 (PTJ64i): 6.79 µM | Selectivity Index (SI) (PTJ86i): 0.74 | IC50 (PTJ86i): 12.4 µM | IC50 (HFF-1): 9.23 µM | effect on cancer cell viability, potency compared with 2b [1]: greater antiproliferative activity than 2b | IC50 (Capan-2): 8.97 µM | Selectivity Index (SI) (Capan-2): 1.03 | IC50 (BxPC-3): 3.99 µM | Selectivity Index (SI) (BxPC-3): 2.31 | IC50 (AsPC-1): 7.66 µM | Selectivity Index (SI) (AsPC-1): 1.20

SMILES: CC(=O)Nc1ccc(NC(=O)C(Sc2nc3cc(Cl)ccc3s2)c2ccccc2)cc1 (stereo not shown) [4f, N-(4-Acetamidophenyl)-2-[(5-chlorobenzo[d]thiazol-2-yl)thio]-2-phenylacetamide]
Selectivity Index (SI) (PTJ64i): 0.53 | IC50 (PTJ64i): 12.3 µM | Selectivity Index (SI) (PTJ86i): 0.51 | IC50 (PTJ86i): 12.8 µM | IC50 (HFF-1; Homo sapiens): 6.54 µM | effect on cancer cell viability, potency compared with 2b [1]: greater antiproliferative activity than 2b | melting point: 243 °C (dec.) | IC50 (Capan-2; Homo sapiens): 20.1 µM | Selectivity Index (SI) (Capan-2): 0.33 | IC50 (BxPC-3; Homo sapiens): 18.9 µM | Selectivity Index (SI) (BxPC-3): 0.35 | IC50 (AsPC-1; Homo sapiens, ASPC1): 10 µM | Selectivity Index (SI) (AsPC-1): 0.65

SMILES: O=C(Nc1cc([N+](=O)[O-])ccc1Br)C(Sc1nc2cc(Cl)ccc2s1)c1ccccc1 (stereo not shown) [4n, N-(2-Bromo-5-nitrophenyl)-2-[(5-chlorobenzo[d]thiazol-2-yl)thio]-2-phenyl Acetamide]
effect on cancer cell viability, potency compared with 2b [1]: exception

SMILES: O=C(Nc1ccc(C(F)(F)F)cc1Br)C(Sc1nc2cc(Cl)ccc2s1)c1ccccc1 (stereo not shown) [4o, N-[2-Bromo-4-(trifluoromethyl)phenyl]-2-[(5-chlorobenzo[d]thiazol-2-yl)thio]-2-phenylacetamide]
effect on cancer cell viability, potency compared with 2b [1]: exception | melting point: 179 to 180 °C

SMILES: O=C(Nc1cc(C(F)(F)F)ccc1Br)C(Sc1nc2cc(Cl)ccc2s1)c1ccccc1 (stereo not shown) [4p, N-[2-Bromo-5-(trifluoromethyl)phenyl]-2-[(5-chlorobenzo[d]thiazol-2-yl)thio]-2-phenylacetamide]
effect on cancer cell viability, potency compared with 2b [1]: exception | melting point: 157 to 159 °C

SMILES: Nc1ccn([C@@H]2O[C@H](CO)[C@@H](O)C2(F)F)c(=O)n1 [GEM, gemcitabine, reference compound]
Inhibition Rate of Cell Viability (Capan-2; Capan-2, GEM 0.1 µM): 26.87% | Inhibition Rate of Cell Viability (Capan-2; Capan-2, GEM 1 µM): 27.22% | Inhibition Rate of Cell Viability (Capan-2; Capan-2, GEM 10 µM): 38.65% | Inhibition Rate of Cell Viability (BxPC-3; BxPC-3, GEM 0.1 µM): 65.02% | Inhibition Rate of Cell Viability (BxPC-3; BxPC-3, GEM 1 µM): 64.65% | Inhibition Rate of Cell Viability (BxPC-3; BxPC-3, GEM 10 µM): 62.50% | Inhibition Rate of Cell Viability (AsPC-1; AsPC-1, GEM 0.1 µM): 54.21% | Inhibition Rate of Cell Viability (AsPC-1; AsPC-1, GEM 1 µM): 63.25% | Inhibition Rate of Cell Viability (AsPC-1; AsPC-1, GEM 10 µM): 64.63%

Further lines, with some results ahead:

melting point: 190 °C (dec.)
SMILES: COc1ccc(NC(=O)C(Sc2nc3cc(Cl)ccc3s2)c2ccccc2)cc1 (stereo not shown) [4a, 2-[(5-Chlorobenzo[d]thiazol-2-yl)thio]-N-(4-methoxyphenyl)-2-phenylacetamide]

melting point: 178 to 180 °C
SMILES: O=C(Nc1ccc(Cl)cc1)C(Sc1nc2cc(Cl)ccc2s1)c1ccccc1 (stereo not shown) [4b, 2-[(5-Chlorobenzo[d]thiazol-2-yl)thio]-N-(4-chlorophenyl)-2-phenylacetamide]

melting point: 191 to 193 °C | IC50 (BxPC-3; Homo sapiens): 10.7 µM | IC50 (AsPC-1; Homo sapiens, ASPC1): 12.8 µM
SMILES: O=C(Nc1ccc([N+](=O)[O-])cc1)C(Sc1nc2cc(Cl)ccc2s1)c1ccccc1 (stereo not shown) [4e, 2-[(5-Chlorobenzo[d]thiazol-2-yl)thio]-N-(4-nitrophenyl)-2-phenylacetamide]
Selectivity Index (SI) (PTJ64i): 1.70 | IC50 (PTJ64i): 9.81 µM | Selectivity Index (SI) (PTJ86i): 0.88 | IC50 (PTJ86i): 18.9 µM | IC50 (HFF-1; Homo sapiens): 16.7 µM | effect on cancer cell viability, potency compared with 2b [1]: greater antiproliferative activity than 2b | IC50 (Capan-2; Homo sapiens): 14.1 µM | Selectivity Index (SI) (Capan-2): 1.18 | Selectivity Index (SI) (BxPC-3): 1.56 | Selectivity Index (SI) (AsPC-1): 1.31

melting point: 160 to 162 °C
SMILES: COc1cccc(NC(=O)C(Sc2nc3cc(Cl)ccc3s2)c2ccccc2)c1 (stereo not shown) [4g, 2-[(5-Chlorobenzo[d]thiazol-2-yl)thio]-N-(3-methoxyphenyl)-2-phenylacetamide]
effect on cancer cell viability, potency compared with 2b [1]: exception

IC50 (BxPC-3; Homo sapiens): 12 µM | IC50 (AsPC-1; Homo sapiens, ASPC1): 12.2 µM
SMILES: O=C(Nc1cccc(Cl)c1)C(Sc1nc2cc(Cl)ccc2s1)c1ccccc1 (stereo not shown) [4h, 2-[(5-Chlorobenzo[d]thiazol-2-yl)thio]-N-(3-chlorophenyl)-2-phenylacetamide]
IC50 (PTJ64i): 7.27 µM | IC50 (PTJ86i): 16.6 µM | IC50 (HFF-1; Homo sapiens): 11.6 µM | effect on cancer cell viability, potency compared with 2b [1]: greater antiproliferative activity than 2b | IC50 (Capan-2; Homo sapiens): 17.7 µM

IC50 (BxPC-3; Homo sapiens): 14 µM | IC50 (AsPC-1; Homo sapiens, ASPC1): 9.53 µM
SMILES: O=C(Nc1cccc(C(F)(F)F)c1)C(Sc1nc2cc(Cl)ccc2s1)c1ccccc1 (stereo not shown) [4j, 2-[(5-Chlorobenzo[d]thiazol-2-yl)thio]-2-phenyl-N-[3-(trifluoromethyl)phenyl]acetamide]
IC50 (PTJ64i): 11.2 µM | IC50 (PTJ86i): 17.5 µM | IC50 (HFF-1; Homo sapiens): 18.1 µM | effect on cancer cell viability, potency compared with 2b [1]: greater antiproliferative activity than 2b | IC50 (Capan-2; Homo sapiens): 24.2 µM

IC50 (BxPC-3; Homo sapiens): 13.7 µM | IC50 (AsPC-1; Homo sapiens, ASPC1): 14.8 µM
SMILES: CC(=O)Nc1cccc(NC(=O)C(Sc2nc3cc(Cl)ccc3s2)c2ccccc2)c1 (stereo not shown) [4l, N-(3-Acetamidophenyl)-2-[(5-chlorobenzo[d]thiazol-2-yl)thio]-2-phenylacetamide]
Selectivity Index (SI) (PTJ64i): 6.62 | IC50 (PTJ64i): 10.1 µM | Selectivity Index (SI) (PTJ86i): 3.37 | IC50 (PTJ86i): 19.9 µM | Inhibition Rate of Cell Viability (HFF-1; HFF-1, 4l 0.5 µM): 0.00% | Inhibition Rate of Cell Viability (HFF-1; HFF-1, 4l 5 µM): 1.00% | Inhibition Rate of Cell Viability (HFF-1; HFF-1, 4l 50 µM): 17.69% | IC50 (HFF-1; Homo sapiens): 67.1 µM | effect on cancer cell viability, potency compared with 2b [1]: greater antiproliferative activity than 2b | Inhibition Rate of Cell Viability (Capan-2; Capan-2, 4l 0.5 µM): 9.34% | Inhibition Rate of Cell Viability (Capan-2; Capan-2, 4l 5 µM): 30.25% | Inhibition Rate of Cell Viability (Capan-2; Capan-2, 4l 50 µM): 43.30% | IC50 (Capan-2; Homo sapiens): 33.8 µM | Selectivity Index (SI) (Capan-2): 1.99 | Inhibition Rate of Cell Viability (BxPC-3; BxPC-3, 4l 0.5 µM): 6.00% | Inhibition Rate of Cell Viability (BxPC-3; BxPC-3, 4l 5 µM): 9.54% | Inhibition Rate of Cell Viability (BxPC-3; BxPC-3, 4l 50 µM): 70.50% | Selectivity Index (SI) (BxPC-3): 4.91 | Inhibition Rate of Cell Viability (AsPC-1; AsPC-1, 4l 0.5 µM): 13.40% | Inhibition Rate of Cell Viability (AsPC-1; AsPC-1, 4l 5 µM): 18.87% | Inhibition Rate of Cell Viability (AsPC-1; AsPC-1, 4l 50 µM): 42.97% | Selectivity Index (SI) (AsPC-1): 4.54

IC50 (BxPC-3): 9.81 µM | IC50 (AsPC-1): 8.49 µM
SMILES: O=C(Nc1ccc(Cl)c(Cl)c1)C(Sc1nc2cc(Cl)ccc2s1)c1ccccc1 (stereo not shown) [4m, 2-[(5-Chlorobenzo[d]thiazol-2-yl)thio]-N-(3,4-dichlorophenyl)-2-phenyl Acetamide]
Selectivity Index (SI) (PTJ64i): 1.32 | IC50 (PTJ64i): 7.84 µM | Selectivity Index (SI) (PTJ86i): 0.52 | IC50 (PTJ86i): 19.9 µM | IC50 (HFF-1): 10.3 µM | effect on cancer cell viability, potency compared with 2b [1]: greater antiproliferative activity than 2b | IC50 (Capan-2): 13.3 µM | Selectivity Index (SI) (Capan-2): 0.77 | Selectivity Index (SI) (BxPC-3): 1.05 | Selectivity Index (SI) (AsPC-1): 1.22
